# Reference: patent US12083355B1, “Preparation of photodynamic therapy tablet and method for construction and application of anti-tumor model for enhanced cancer treatment” (Sichuan Cancer Hospital, priority 2023, dated 2024)
# Key:
# Assay in all cases: CCK-8 cell viability assay, anti-tumor model with wireless self-powered photodynamic tablet
# Assay type in all cases: cell-based
# Conditions in all cases: 10 μM IKE, PDT groups: 8 μM Ce6 6 h, 20 min 660 nm light, CCK-8 after 24 hours
# [1] = test system: human lung cancer cells A549
# Experimental: (§1) This embodiment provides a comprehensive account of constructing an anti-tumor model utilizing the wireless self-powered photodynamic tablet (8), using human lung cancer cells A549 and H1299, as well as mouse lung cancer cells LLC. The experimental procedure involved seeding 8,000 cells per well in a 96-well plate and allowing them to adhere for 24 hours. The cells were divided into four groups: control group (Ctrl), ferroptosis inducer (IKE) group, photodynamic therapy (PDT) group, and combined treatment of IKE and PDT (IKE+PDT) group. The culture medium was then replaced accordingly: the PDT and IKE+PDT groups received 100 μL of serum-free medium containing 8 μM photosensitizer Ce6, while the Ctrl and IKE groups were replaced with serum-free medium. Following this, the cells were incubated for 6 hours under light avoidance conditions (i.e., in the substantial absence of visible light). Subsequently, the culture medium was replaced again: the IKE and IKE+PDT groups received fresh complete medium containing 10 μM IKE, while the Ctrl and PDT groups received complete medium. The PDT and IKE+PDT groups underwent 20 minutes of photodynamic therapy (e.g., with 660 nm light from the photodynamic tablet). After 24 hours of incubation, a cell viability assay was conducted using the CCK-8 reagent kit. Each experiment was repeated three times, and the data were subjected to statistical analysis.
# [2] = test system: human lung cancer cells H1299
# Experimental: as §1
# [3] = test system: mouse lung cancer cells LLC
# Experimental: as §1
smiles,measurement,setting,value
CC(C)Oc1ccc(C(=O)Cn2ccnc2)cc1-n1c(CN2CCN(C(=O)COc3ccc(Cl)cc3)CC2)nc2ccccc2c1=O [IKE],decrease in cell viability compared to the control group,[1],22.4%
same,decrease in cell viability compared to the control group,[2],26.0%
same,decrease in cell viability compared to the control group,[3],30.3%
